Laboratory results from US7078499B2, “Nucleotide analogues comprising a reporter moiety and a polymerase enzyme blocking moiety” (GE Healthcare UK Limited, priority 2000, dated 2006).

Key:
Format in all cases: biochemical
[1] = system: Retrotherm reverse transcriptase; assay: Thermostable polymerase under reverse transcription conditions, Retroth.; parameters: key to result of incorporation (termination / further chain extension): T: Incorporation results in termination; E: Incorporation permits further chain extension; T/E: Predominant product is primer extended by one base, but evidence of some further extension also observed; key to primer extended by at least one base within assay time (grade): −: No extension within assay time; +/−: up to 25% of primer extended by at least one base within assay time; +: up to 50% of primer extended by at least one base within assay time; ++: up to 75% of primer extended by at least one base within assay time; +++: essentially all primer extended by at least one base within assay time; settings: RNA template, 2.5 mM Manganese ions; for primer extended by at least one base within assay time (grade): Tth reaction buffer
Protocol: (§1) DNA polymerase assays were performed using Sequence 1 as primer and Sequence 2 as template. • Sequence 1 5′[Cy3]TAACTCATTAACAGGATC 3′ • Sequence 2 5′AT TCGCGGTATTCTGGTATGAAGCTTTTAGATCCTGTTAATGAGTTA GTA3′
(§2) The template (Sequence 2) was designed such that the base (underlined) immediately adjacent to the 3′ end of the hybridised primer is complementary to the nucleotide test compound. Nucleotide test compounds were compounds (6) (4′-C-(glycylaminomethyl)thymidine triphosphate), (8) (4′-C-(N-trifluoroacetyaminomethyl)thymidine triphosphate) and (9) (4′-C-(aminomethyl)thymidine triphosphate) as described above.
(§3) Primer extension reactions were performed using the above primers in the presence of 40 to 80 μM of nucleotide triphosphates. Positive control reactions contained all four native nucleotide triphosphates. For the other reactions the TTP was replaced with either a 2:1 ratio of […] for the terminator control, or entirely by the test compound The enzymes were used at a final concentration of 0.175 units/μl and a magnesium ion concentration of 2.5 mM in buffers supplied by the manufacturer. The primer and template concentrations were 0.5 pmol/μl and 2 pmol/μl respectively.
(§4) Extension reactions with thermophilic enzymes were performed by initially denaturing the fully assembled reactions at 70° C. for 5 min. followed by 45° C. for 20–40 minutes. The following enzymes were used: Taq DNA polymerase (Taq); Thermosequenase (TS); Thermosequenase II (TSII); Thermosequenase E (TSE), Tfl DNA polymerase (Tfl); Tth DNA polymerase (Tth), deltaTts DNA polymerase (deltaTts), deltaTts D DNA polymerase (dettaTTSD) (all from APBiotech); Pfu DNA polymerase (Pfu) (Stratagene Ltd); Vent™ DNA polymerase (Vent) (New England Biolabs).
Reverse transcriptase reactions were performed essentially as described above for thermophilic and mesophilic enzymes. The template for these reactions was the RNA equivalent of sequence 2. All the thermophilic enzymes were assayed in Tth reaction buffer (Cambio Ltd, Cambridge UK) containing 2.5 mM Manganese ions. The following enzymes were used: Thermosequenase (TS1); Thermosequenase II (TSII); delta Tts DNA polymerase (deltaTts); delta Tts D DNA polymerase (deltaTtsD) (all from APBiotech); Retrotherm reverse transcriptase (Retroth) (Cambio Ltd); Tth DNA polymerase (Tth) (Cambio Ltd.).
(§5) The reactions were stopped by adding a 0.5 volume aliquot of 80% formamide containing 0.1% (w/v) bromophenol blue and 0.1% (w/v) cresol blue. The reaction products were separated by denaturing gel electrophoresis at a constant power of 45 W on 16% polyacrylamide gels containing 50% urea.
(§6) Gels were scanned for Cy3 fluorescence on a Molecular Dynamics Fluorimager and the data analysed using Molecular Dynamics ImageQuant 5 software.
(§7) The incorporation of a test nucleotide triphosphate results in the appearance on a polyacrylamide gel of a single band corresponding to a single base extension product. If, however, the enzyme adds additional bases then further bands would be observed that corresponded to either the full-length product or positions of other complementary bases in the template.

Bst DNA polymerase = molecular target: T1, Bst DNA polymerase (Geobacillus stearothermophilus, UniProt P52026); assay: Mesophilic DNA polymerase primer extension, Bst; parameters: key to result of incorporation (termination / further chain extension): T: Incorporation results in termination; E: Incorporation permits further chain extension; T/E: Predominant product is primer extended by one base, but evidence of some further extension also observed; settings: DNA template, 37° C. for 20–40 minutes; for primer extended by at least one base within assay time (grade): TTP replaced entirely by test compound
T1 construct: purchased Cambio Ltd
T1 sequence (P52026 1-876): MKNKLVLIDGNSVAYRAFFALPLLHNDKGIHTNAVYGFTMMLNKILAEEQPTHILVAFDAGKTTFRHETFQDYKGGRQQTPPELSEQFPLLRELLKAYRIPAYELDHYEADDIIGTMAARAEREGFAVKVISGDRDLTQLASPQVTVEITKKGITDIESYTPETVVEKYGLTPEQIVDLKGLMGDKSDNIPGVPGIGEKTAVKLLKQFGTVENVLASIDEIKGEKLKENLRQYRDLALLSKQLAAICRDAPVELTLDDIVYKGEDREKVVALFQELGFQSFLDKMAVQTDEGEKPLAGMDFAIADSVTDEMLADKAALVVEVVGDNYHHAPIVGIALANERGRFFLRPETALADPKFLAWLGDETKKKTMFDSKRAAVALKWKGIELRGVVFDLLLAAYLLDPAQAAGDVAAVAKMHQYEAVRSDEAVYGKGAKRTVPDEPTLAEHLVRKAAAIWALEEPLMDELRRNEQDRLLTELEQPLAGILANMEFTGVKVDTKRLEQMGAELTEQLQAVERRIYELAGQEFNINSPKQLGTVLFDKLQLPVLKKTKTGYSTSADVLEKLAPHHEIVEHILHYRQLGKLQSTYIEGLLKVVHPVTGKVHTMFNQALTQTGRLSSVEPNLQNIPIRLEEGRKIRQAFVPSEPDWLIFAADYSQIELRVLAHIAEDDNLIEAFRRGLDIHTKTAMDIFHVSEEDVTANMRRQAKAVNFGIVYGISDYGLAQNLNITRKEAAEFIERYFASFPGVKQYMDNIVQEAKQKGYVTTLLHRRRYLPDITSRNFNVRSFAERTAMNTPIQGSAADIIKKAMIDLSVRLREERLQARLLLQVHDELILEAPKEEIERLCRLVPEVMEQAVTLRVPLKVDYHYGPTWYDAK
Protocol: as §1, §2, §3
Extension reactions preformed with mesophilic polymerases were carried out by mixing all the components of the reaction except the enzyme and heating to 70° C. for 5 min. After the reactions had cooled to room temperature 0.175 units of the enzyme were added and the reactions heated to 37° C. for 20–40 minutes. The following enzymes were used: T7 DNA polymerase (T7); Sequenase 2™ (Seq); Klenow fragment of DNA polymerase 1 (Klen); phi-29 DNA polymerase (Phi-29); T4 DNA polymerase (T4) (all from AP Biotech) and Bst DNA polymerase (Bst) (Cambio Ltd).
as §5, §6, §7

deltaTts DNA polymerase = assay: Thermostable DNA polymerase primer extension, delta Tts; parameters: key to result of incorporation (termination / further chain extension): T: Incorporation results in termination; E: Incorporation permits further chain extension; T/E: Predominant product is primer extended by one base, but evidence of some further extension also observed; settings: DNA template, 45° C. for 20–40 minutes; for primer extended by at least one base within assay time (grade): TTP replaced entirely by test compound
Protocol: as §1, §2, §3, §4, §5, §6, §7

Row | Molecule | result of incorporation (termination / further chain extension) [1] | primer extended by at least one base within assay time (grade) [1] | result of incorporation (termination / further chain extension) (Bst DNA polymerase) | primer extended by at least one base within assay time (grade) (Bst DNA polymerase) | result of incorporation (termination / further chain extension) (deltaTts DNA polymerase) | primer extended by at least one base within assay time (grade) (deltaTts DNA polymerase)
1 | 4′-C-(Aminomethyl)thymidine triphosphate [compound (9)] | E | +++ | T | + (up to 50% of primer extended by at least one base within assay time) | T | +T
2 | Cc1cn([C@H]2C[C@H](O)[C@@](CNC(=O)C(F)(F)F)(COP(=O)(O)OP(=O)(O)OP(=O)(O)O)O2)c(=O)[nH]c1=O [compound (8), 4′-C-(N-trifluoroacetylaminomethyl)thymidine triphosphate] | E | ++ (up to 75% of primer extended by at least one base within assay time) | T | + (up to 50% of primer extended by at least one base within assay time) | T | + (up to 50% of primer extended by at least one base within assay time)
3 | 4′-C-(Glycylaminomethyl)thymidine triphosphate [compound (6)] | E | ++ (up to 75% of primer extended by at least one base within assay time) | T | + (up to 50% of primer extended by at least one base within assay time) | T | + (up to 50% of primer extended by at least one base within assay time)
